Reference: US10689340B2, “Substituted indoline derivatives as dengue viral replication inhibitors” (priority 2016, dated 2020)
Structures can show the parent of a compound that is named as a salt.

Key:
DENV-3 strain H87 = experiment: Tetravalent RT-qPCR assay, serotype 3; assay type: cell-based; settings: Dengue virus, DENV3, 72 h; RT-qPCR serotype 3 H87, Protocol A, Vero cells, day 3
Protocol: (§1) The antiviral activity of the compounds of the invention was tested against DENV-1 strain TC974#666 (NCPV), DENV-2 strain 16681, DENV-3 strain H87 (NCPV) and DENV-4 strain H241 (NCPV) in a RT-qPCR assay. Therefore, Vero cells were infected with either DENV-1, or -2, or -3, or -4 in the presence or absence of test compounds. At day 3 post-infection, the cells were lysed and cell lysates were used to prepare cDNA of both a viral target (the 3′UTR of DENV; Table 2) and a cellular reference gene (β-actin, Table 2). Subsequently, a duplex real time PCR was performed on a Lightcycler480 instrument. The generated Cp value is inversely proportional to the amount of RNA expression of these targets. Inhibition of DENV replication by a test compound results in a shift of Cp's for the 3′UTR gene. On the other hand, if a test compound is toxic to the cells, a similar effect on β-actin expression will be observed. The comparative ΔΔCp method is used to calculate EC50, which is based on the relative gene expression of the target gene (3′UTR) normalized with the cellular housekeeping gene (β-actin). In addition, CC50 values are determined based on the Cp values acquired for the housekeeping gene β-actin.
(§2) The culture medium consisted of minimal essential medium supplemented with 2% of heat-inactivated fetal calf serum, 0.04% gentamycin (50 mg/mL) and 2 mM of L-glutamine. Vero cells, obtained from ECACC, were suspended in culture medium and 75 μL/well was added in 96-well plates (10000 cells/well), which already contain the antiviral compounds. […] In addition, each plate contains wells which are assigned as virus controls (containing cells and virus in the absence of compound) and cell controls (containing cells in the absence of virus and compound). Once the cells were added in the plates, the plates were incubated in a fully humidified incubator (37° C., 5% CO2) until the next day. Dengue viruses serotype-1, -2, -3 and -4 were diluted in order to obtain a Cp of ˜22-24 in the assay. Therefore, 25 μL of virus suspension was added to all the wells containing test compound and to the wells assigned as virus control. In parallel, 25 μL of culture medium was added to the cell controls. Next, the plates were incubated for 3 days in a fully humidified incubator (37° C., 5% CO2). After 3 days, the supernatant was removed from the wells and the cells were washed twice with ice-cold PBS (˜100 μL). The cell pellets within the 96-well plates were stored at −80° C. for at least 1 day. Next, RNA was extracted using the Cells-to-CT^Tm lysis kit, according to the manufacturer's guideline (Life Technologies). The cell lysates can be stored at −80° C. or immediately used in the reverse transcription step.
(§3) In preparation of the reverse transcription step, mix A (table 3A) was prepared and 7.57 μL/well was dispensed in a 96-well plate. After addition of 5 μL of the cell lysates, a five minute denaturation step at 75° C. was performed (table 3B). Afterwards, 7.43 μL of mix B was added (table 3C) and the reverse transcription step was initiated (table 3D) to generate cDNA.
(§4) Finally, a RT-qPCR mix was prepared, mix C (table 4A), and 22.02 μL/well was dispensed in 96-well LightCycler qPCR plates to which 3 μL of cDNA was added and the qPCR was performed according to the conditions in table 4B on a LightCycler 480.
(§5) Using the LightCycler software and an in-house LIMS system, dose response curves for each compound were calculated and the half maximal effective concentration (EC50) and the half maximal cytotoxic concentration (CC50) were determined (Tables 5-8).

DENV-2 strain 16681 = experiment: Tetravalent RT-qPCR assay, serotype 2; assay type: cell-based; settings: Dengue virus, DENV2, 72 h; RT-qPCR serotype 2 16681, Protocol A, Vero cells, day 3
Protocol: as §1, §2, §3, §4, §5

DENV-4 strain H241 = experiment: Tetravalent RT-qPCR assay, serotype 4; assay type: cell-based; settings: Dengue virus, DENV4, 72 h; RT-qPCR serotype 4 H241, Protocol A, Vero cells, day 3
Protocol: as §1, §2, §3, §4, §5

DENV-2 16681 strain = experiment: DENV-2 antiviral assay (eGFP fluorescence); assay type: cell-based, Dengue virus; settings: DENV-2 16681 eGFP, Vero cells, MOI 0.5, 3 days
Protocol: The antiviral activity of all the compounds of the invention was tested against the DENV-2 16681 strain which was labeled with enhanced green fluorescent protein (eGPF). The culture medium consists of minimal essential medium supplemented with 2% of heat-inactivated fetal calf serum, 0.04% gentamycin (50 mg/mL) and 2 mM of L-glutamine. Vero cells, obtained from ECACC, were suspended in culture medium and 25 μL was added to 384-well plates (2500 cells/well), which already contain the antiviral compounds. Typically, these plates contain a 5-fold serial dilution of 9 dilution steps of the test compound at 200 times the final concentration in 100% DMSO (200 nL). […] Finally, each plate contains wells which are assigned as virus controls (containing cells and virus in the absence of compound), cell controls (containing cells in the absence of virus and compound) and medium controls (containing medium in the absence of cells, virus and compounds). To the wells assigned as medium control, 25 μL of culture medium was added instead of Vero cells. Once the cells were added to the plates, the plates were incubated for 30 minutes at room temperature to allow the cells to distribute evenly within the wells. Next, the plates were incubated in a fully humidified incubator (37° C., 5% CO2) until the next day. Then, DENV-2 strain 16681, labeled with eGFP, was added at a multiplicity of infection (MOI) of 0.5. Therefore, 15 μL of virus suspension was added to all the wells containing test compound and to the wells assigned as virus control. In parallel, 15 μL of culture medium was added to the medium and cell controls. Next, the plates were incubated for 3 days in a fully humidified incubator (37° C., 5% CO2). At the day of the read out, the eGFP fluorescence was measured using an automated fluorescence microscope at 488 nm (blue laser). Using an in-house LIMS system, inhibition dose response curves for each compound were calculated and the half maximal effective concentration (EC50) was determined. Therefore, the percent inhibition (I) for every test concentration is calculated using the following formula: I=100*(ST-SCC)/(SVC-SCC); ST, SCC and SVC are the amount of eGFP signal in the test compound, cell control and virus control wells, respectively. The EC50, represents the concentration of a compound at which the virus replication is inhibited with 50%, as measured by a 50% reduction of the eGFP fluorescent intensity compared to the virus control. The EC50 is calculated using linear interpolation (Table 1).

DENV-1 strain TC974#666 = experiment: Tetravalent RT-qPCR assay, serotype 1; assay type: cell-based; settings: Dengue virus, DENV1, Vero, 72 h
Protocol: as §1, §2, §3, §4, §5

Vero cells = settings: African green monkey
in vitro = settings: African green monkey

Structure (SMILES) | EC50 (DENV-3 strain H87) [nM] | EC50 (DENV-2 strain 16681) [nM] | EC50 (DENV-4 strain H241) [nM] | EC50 (DENV-2 16681 strain) [nM] | EC50 (DENV-1 strain TC974#666) [nM] | CC50 (Vero cells) [nM] | melting point [°C] | CC50 (in vitro) [nM]
COc1cc(NC(C(=O)N2CCc3cc(OC)c(C(F)(F)F)cc32)c2ccc(Cl)cc2OC)cc(OCCCC(=O)O)c1 (single isomer, unassigned) [Compound 7B] | 5.8 | 0.28 | 25 | 0.17 | 0.61 | 13000 |  | 
COc1cc(NC(C(=O)N2CCc3ccc(C(F)(F)F)cc32)c2ccc(F)cc2)cc(OCCCC(=O)O)c1 (single isomer, unassigned) [Compound 1B] | 3.4 | 0.48 | 51 | 0.84 | 0.28 | 20000 |  | 
COc1cc(NC(C(=O)N2CCc3cc(OC)c(C(F)(F)F)cc32)c2ccc(Cl)cc2OC)cc(OCCCC(=O)O)c1 (racemic) (as salt: HCl) [Compound 7, 4-(3-((1-(4-chloro-2-methoxyphenyl)-2-(5-methoxy-6-(trifluoromethyl)indolin-1-yl)-2-oxoethyl)amino)-5-methoxyphenoxy)butanoic acid] |  |  |  |  |  |  | 160 | 
COc1cc(NC(C(=O)N2CCc3cc(OC)c(C(F)(F)F)cc32)c2ccc(Cl)cc2)cc(OCCCC(=O)O)c1 (racemic) (as salt: HCl) [Compound 5, 4-(3-((1-(4-chlorophenyl)-2-(5-methoxy-6-(trifluoromethyl)indolin-1-yl)-2-oxoethyl)amino)-5-methoxyphenoxy)butanoic Acid] |  |  |  |  |  |  | 130 | 
COc1cc(NC(C(=O)N2CCc3cc(OC)c(OC(F)(F)F)cc32)c2ccc(Cl)cc2)cc(OCCCC(=O)O)c1 (single isomer, unassigned) [Compound 12B] | 4.1 | 0.22 | 28 | 0.35 | 0.68 | 12000 |  | 
COc1cc(NC(C(=O)N2CCc3ccc(OC(F)(F)F)cc32)c2ccc(Cl)cc2OC)cc(OCCCC(=O)O)c1 (single isomer, unassigned) [Compound 8B] | 1 | 0.062 | 12 | 0.066 | 0.15 | 14000 |  | 
COc1cc(NC(C(=O)N2CCc3ccc(OC(F)(F)F)cc32)c2ccc(Cl)cc2F)cc(OCCCC(=O)O)c1 (single isomer, unassigned) [Compound 10A] | 2.1 | 0.2 | 10 | 0.19 | 0.16 |  |  | 13000
COc1cc(NC(C(=O)N2CCc3cc(OC)c(C(F)(F)F)cc32)c2ccc(Cl)cc2)cc(OCCCC(=O)O)c1 (single isomer, unassigned) [Compound 5B] | 4.6 | 0.17 | 24 | 0.18 | 0.74 | 13000 |  | 
COc1cc(NC(C(=O)N2CCc3cc(OC)c(C(F)(F)F)cc32)c2ccc(Cl)cc2F)cc(OCCCC(=O)O)c1 (single isomer, unassigned) [Compound 11B] | 5.4 | 0.17 | 22 | 0.15 | 0.67 | 12000 |  | 
COc1cc(NC(C(=O)N2CCc3ccc(OC(F)(F)F)cc32)c2ccc(F)cc2)cc(OCCCC(=O)O)c1 (racemic) (as salt: HCl) [Compound 2, 4-(3-((1-(4-fluorophenyl)-2-oxo-2-(6-(trifluoromethoxy)indolin-1-yl)ethyl)amino)-5-methoxyphenoxy)butanoic acid] |  |  |  |  |  |  | 136 | 
COc1cc(NC(C(=O)N2CCc3ccc(OC(F)(F)F)cc32)c2ccc(Cl)cc2OC)cc(OCCCC(=O)O)c1 (racemic) (as salt: HCl) [Compound 8, 4-(3-((1-(4-chloro-2-methoxyphenyl)-2-oxo-2-(6-(trifluoro-methoxy)indolin-1-yl)ethyl)amino)-5-methoxyphenoxy)butanoic acid] |  |  |  |  |  |  | 139 | 
COc1cc(NC(C(=O)N2CCc3ccc(OC(F)(F)F)cc32)c2ccc(Cl)cc2)cc(OCCCC(=O)O)c1 (single isomer, unassigned) [Compound 4B] | 0.66 | 0.06 | 11 | 0.12 | 0.048 | 13000 |  | 
COc1cc(NC(C(=O)N2CCc3ccc(OC(F)(F)F)cc32)c2ccc(F)cc2)cc(OCCCC(=O)O)c1 (single isomer, unassigned) [Compound 2B] | 4.6 | 0.28 | 30 | 0.24 | 0.3 | 20000 |  | 
COc1cc(NC(C(=O)N2CCc3cc(OC)c(C(F)(F)F)cc32)c2ccc(Cl)cc2F)cc(OCCCC(=O)O)c1 (racemic) (as salt: HCl) [Compound 11, 4-(3-((1-(4-chloro-2-fluorophenyl)-2-(5-methoxy-6-(trifluoromethyl)indolin-1-yl)-2-oxoethyl)amino)-5-methoxyphenoxy)butanoic acid] |  |  |  |  |  |  | 121 | 
COc1cc(NC(C(=O)N2CCc3ccc(C(F)(F)F)cc32)c2ccc(Cl)cc2)cc(OCCCC(=O)O)c1 (single isomer, unassigned) [Compound 3B] | 1.1 | 0.12 | 14 | 0.14 | 0.18 | 13000 |  | 
COc1cc(NC(C(=O)N2CCc3ccc(C(F)(F)F)cc32)c2ccc(Cl)cc2F)cc(OCCCC(=O)O)c1 (single isomer, unassigned) [Compound 9B] | 4.1 | 0.3 | 31 | 0.4 | 0.22 | 13000 |  | 
